In patent US20080119530A1, “Method for treatment and prevention of ultraviolet light induced skin pathologies” (priority 2006, published 2008):

Experiments:
Tg.AC mice = assay: UV-induced skin tumorigenesis in v-rasHa transgenic Tg.AC mice; assay type: in vivo, mouse
Description: Animals. Homozygous v-rasHa transgenic mice on an FVB/N background were used in in vivo experiments. To obtain keratinocytes with genetic ablation of Erbb2, loxP sites were inserted flanking exon 2 of Erbb2 such that splicing from exon1 to downstream introns upon Cre recombinase expression creates a frameshift mutation. Mice were maintained in our animal facility and provided with Purina lab chow (Nestle Purina PetCare, St. Louis, Mo.) and water ad libitum. The dorsal skin was clipped one day before treatment using electric clippers (Wahl, Sterling, II) and shaved on the day of treatment with a Remington Microscreen shaver (Madison, N.C.). […] The Ultraviolet-B TL 40W/12 RS bulbs (Philips, Somerset, N.J.) used emitted approximately 30% UVA, 70% UVB and <1% UVC, with a total output of 470 μW/cm^2, as measured with radiometric photodetector probes (Newport, Irvine, Calif.). For tumor experiments, homozygous Tg.AC mice were treated and exposed twice with an interval of 7 d. Tumor number was counted and tumor volume measured weekly using calipers. Skin-fold thickness was measured using calipers (Mitutoyo, Aurora, Ill.) to lightly pinch the dorsal skin. All animal procedures were performed in accordance with American Association of Laboratory Animal Care guidelines and approved by Creighton University's Institutional Animal Care and Use Committee.
Statistical methods. The tumor experiment was analyzed using two-way ANOVA. Statistical significance in other experiments was assessed using two-way ANOVA or Student's t-test with Bonferroni post-test. All experiments, excluding the tumor experiment, were replicated several times and consistent results obtained.
The skin tumorigenesis experiment was performed in v-ras^Ha transgenic Tg.AC mice because of their enhanced sensitivity to UV-induced skin tumorigenesis (13; 52). […] While the vehicle-treated mice continued to accrue tumors throughout the duration of the experiment, the AG825-treated group reached a plateau in tumor number by 7 weeks after the first UV exposure. By the end of the experiment, mean tumor volume was also 70% less in the AG825-treated group when compared to the vehicle control. Representative tumors from each treatment were examined histologically and all were benign squamous papillomas with similar differentiation status.
Upon activation, Erbb2 heterodimerizes with either EGFR or Erbb3 to transduce signals. Support for the hypothesis that Erbb2 increases skin carcinogenesis comes from our investigations of the functions of its dimerization partner EGFR. A tumor study was conducted to assess the role of EGFR in the clonal expansion of transformed cells to form benign tumors in the skin of v-ras^Ha transgenic Tg.AC mice. Inhibition of EGFR with the tyrphostin inhibitor AG1478 decreased the number of tumors that developed by about 50% in UV-exposed v-rasHa transgenic mice. Mean tumor volume was 80% less upon inhibition of EGFR-mediated signaling when compared to, UV-exposed and vehicle-treated controls.

skin = assay: Cell cycle analysis of skin sections by flow cytometry; assay type: in vivo, mouse; details: inhibition prior to UV irradiation
Method: Flow cytometry. […] sections from paraffin embedded blocks were dewaxed with xylene, rehydrated and digested in PBS containing 0.5% pepsin (Sigma, St. Louis, Mo.). The nuclei were isolated by filtration and suspended in Vindelov's (56) solution reagent (3.5 mM tris base, pH 7.6, 10 mM NaCl, 10 μg/ml Ribonuclease A, 75 μg/ml PI, 1.0 μl/ml IPEGAL; (71)). At least 10,000 events from each sample were analyzed for flow cytometry on a FACSCalibur flow cytometer (Becton Dickinson, Franklin Lakes, N.J.). Data were acquired in the FL2 channel with a […] filter. Fluorescence signals were pulse processed and single cells identified using a FL2W versus FL2A plot. A histogram of FL2A was plotted for single cells and cell cycle distributions determined using ModFit LT 3.1 software (Verity Software House, Topsham, Me.).
Cell cycle. […] For in vitro analysis, keratinocytes were resuspended, fixed in 70% ethanol, resuspended in Vindelov's solution (3.5 mM Tris base, pH 7.6, 10 mM NaCl, 10 μg/ml Ribonuclease A, 75 μg/ml propidium iodide, 1.01l/ml IPEGAL), and analyzed on a FACSCalibur flow cytometer (Becton Dickinson, Franklin Lakes, N.J.). Cell cycle distributions were determined using ModFit LT 3.1 software (Verity Software House, Topsham, Me.). […]

[1] = target: insulin-like growth factor I receptor kinase (Homo sapiens, UniProt P08069)
Chain of insulin-like growth factor I receptor kinase (P08069 31-1367): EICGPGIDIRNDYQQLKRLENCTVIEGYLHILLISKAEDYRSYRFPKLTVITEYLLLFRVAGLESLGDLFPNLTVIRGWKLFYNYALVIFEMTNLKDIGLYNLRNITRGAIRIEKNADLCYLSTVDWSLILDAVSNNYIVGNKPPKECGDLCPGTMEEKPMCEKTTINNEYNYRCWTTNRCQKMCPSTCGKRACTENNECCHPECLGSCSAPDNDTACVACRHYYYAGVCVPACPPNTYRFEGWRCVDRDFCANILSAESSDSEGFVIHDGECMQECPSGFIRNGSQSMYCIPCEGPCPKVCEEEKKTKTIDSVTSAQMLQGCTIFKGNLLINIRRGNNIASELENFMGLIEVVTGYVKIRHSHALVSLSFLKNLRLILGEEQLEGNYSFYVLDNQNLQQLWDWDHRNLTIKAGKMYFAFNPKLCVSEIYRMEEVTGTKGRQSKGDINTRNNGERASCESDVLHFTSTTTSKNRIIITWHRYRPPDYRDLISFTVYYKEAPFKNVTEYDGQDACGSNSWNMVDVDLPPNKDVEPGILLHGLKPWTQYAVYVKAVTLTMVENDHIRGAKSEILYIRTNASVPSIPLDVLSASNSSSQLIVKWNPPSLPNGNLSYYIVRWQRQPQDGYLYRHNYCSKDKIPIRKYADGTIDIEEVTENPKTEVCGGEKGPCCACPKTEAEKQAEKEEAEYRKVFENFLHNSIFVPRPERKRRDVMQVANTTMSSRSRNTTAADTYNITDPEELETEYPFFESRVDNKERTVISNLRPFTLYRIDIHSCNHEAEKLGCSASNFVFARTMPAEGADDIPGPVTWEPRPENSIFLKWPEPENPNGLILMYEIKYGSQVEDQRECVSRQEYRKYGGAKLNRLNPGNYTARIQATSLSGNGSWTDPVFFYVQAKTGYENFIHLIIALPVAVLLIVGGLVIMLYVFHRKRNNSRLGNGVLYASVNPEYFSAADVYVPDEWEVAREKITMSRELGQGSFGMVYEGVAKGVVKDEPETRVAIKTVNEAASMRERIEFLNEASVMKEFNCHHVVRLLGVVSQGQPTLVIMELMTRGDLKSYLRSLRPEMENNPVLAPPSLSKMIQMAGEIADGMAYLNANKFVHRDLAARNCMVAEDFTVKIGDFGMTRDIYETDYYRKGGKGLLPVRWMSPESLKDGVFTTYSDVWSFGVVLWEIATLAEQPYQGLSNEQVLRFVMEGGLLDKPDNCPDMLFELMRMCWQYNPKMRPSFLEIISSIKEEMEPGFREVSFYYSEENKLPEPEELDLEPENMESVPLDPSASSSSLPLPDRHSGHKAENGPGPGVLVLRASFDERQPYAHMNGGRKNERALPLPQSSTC

## COc1cc(/C=C(\C#N)C(N)=O)cc(CSc2nc3ccccc3s2)c1O [AG825]
Tg.AC mice; 4 mg AG825 topically 2 h prior to each of two 10 kJ/m^2 UV exposures 7 d apart
  tumors per mouse by the end of the experiment: 15
Tg.AC mice; 12 weeks later
  tumor multiplicity decreased: more than half
  tumor volume decreased: more than half
Tg.AC mice; after the first UV exposure
  time by which tumor number reached a plateau: ≤ 7 weeks
Tg.AC mice; by the end of the experiment
  mean tumor volume less than vehicle control: 70%
Tg.AC mice; inhibition of Erbb2 prior to UV irradiation, vs vehicle
  development of tumors blocked: more than half
Tg.AC mice; topical treatment 2 h prior to UV irradiation
  UV-induced carcinogenesis (FIG. 6): suppress
skin
  S-phase cells in skin: increased
[1]
  fold higher IC50 for insulin-like growth factor I receptor kinase than for Erbb2: more than 100 fold
